# Article PMC6733959, “Synthesis and Evaluations of Novel Apocynin Derivatives as Anti-Glioma Agents” (Frontiers in Pharmacology, 2019)
# Tests used:
# rat BMECs = test: Cytotoxicity of apocynin derivatives on rat BMECs (MTT, 24 h); format: cell-based; conditions: 100 μM, vs control, P < 0.05
# Method: (§1) Rat brain microvascular endothelial cells (BMECs) were separated from the cerebral cortex of 18-day-old male Sprague-Dawley rats as described previously ([Biegel et al., 1995]). Briefly, the cerebral cortical tissues were dissected from meninges after the rats were sacrificed, then the tissues were homogenated in physiological buffer solution (pH 7.4). After centrifugation, the pellets were collected, and the microvascular segments were then digested with 0.1% collagenase II at 37°C for 1 h. […] The second passage was used for co-culture of BBB cellular models.
# Rat BMECs were collected and seeded into 96-well culture plates at a density of 7.5 × 10^3 cells/well overnight. The cells were treated with different concentrations of the compounds (10, 20, and 100 μM) for 24 h, respectively. Then, 20-μl MTT (5 mg/ml) in fresh medium was added to each well and incubated for another 4 h. Finally, 150μl dimethyl sulfoxide (DMSO) was added to dissolve formazan crystals, and the absorbance was detected at 490 nm in a multiwall-plate reader (BioTek ELx800).
# NADPH oxidase (NOX) [1] = test: NOX activity determination, U87 cells; format: cell-based, human; conditions: 20 and 50 μM
# Method: (§2) The effects of candidate drug on NOX activities were measured using cytochrome c reductase (NADPH) Assay Kit (Sigma-Aldrich, St. Louis, MO, USA). Brieﬂy, after the compound treatment (20, 50 μM), the cells were collected and homogenized in an isotonic buffer ([…]), and centrifuged at 1,000 g to obtain the post-nuclear supernatants. Then 50μl samples were added to 950μl working solution (at 25°C) in a 1ml cuvette and mixed by inversion. Then 20μl cytochrome c oxidase inhibitor solution was added. After reaction with 100 μl NADPH solution, the cytochrome c absorbance was monitored at 550 nm by a spectrophotometer.
# [2] = Transport experiment in the in vitro BBB cell model; format: in vitro ADME; conditions: Sprague-Dawley, rat, C0 20 μM, apical to basolateral, mean ± SD (n = 3-4), read-out: Papp × 10^−6
# Method: as §1
# Astrocytes were separated from the cerebral cortex of newborn Sprague-Dawley rats (1–2 days) as described previously ([Jeliazkova-Mecheva and Bobilya, 2003]). The brain tissues (removal of the meninges and blood vessel) were minced and mechanical homogenized and then digested with 0.25% trypsin-EDTA at 37°C for 10 min.
# The in vitro BBB cell model was constructed in the Transwell 24well plate ([…], Millipore, USA). Before the experiment, the transwell filters were coated with matrigel matrix. The isolated rat astroglias were seeded onto one side of polycarbonate inserts (5 × 10^4 cells/insert). After 3 to 5 days, the rat BMECs were seeded at a density of 1.5 × 10^5 cells/insert onto the opposite side of the inserts to produce rat BMEC monolayers. The in vitro BBB cell model was formed 3 to 4 days. Trans-epithelial electrical resistance (TEER) measurements were performed everyday after the co-cultures formed until the TEER value increased to […] ([Yang et al., 2014]) ( Figure 2C ).
# The transport experiments were performed by adding 400 μl HBSS containing the compounds to the apical side (AP), with 600μl HBSS to the basolateral side (BL) at the same time. Samples (60 μl) were collected from the BL chamber at the time points of 15, 30, 60, 90, 120, and 180 min, and the corresponding volume of HBSS buffer was immediately added into the BL chamber. The samples were precipitated by methanol, and the concentrations of the compounds in the samples were determined by high-performance liquid chromatography (HPLC). The HPLC conditions were as follows: Agilent TC-C18 column (250 × 4.6 mm; 5 μm), methanol 1% ethanoic acid mobile phase (from 10:90 to 90:10, v/v), with gradient elution at a flow rate of 1.0 ml/min. The detection wavelength was 275 nm for these compounds. The run time was 20 min. The apparent permeability coefficients (P app) were calculated from the following formula: P app = (∆Q/∆t)/(A × C 0), where ∆Q/∆t is the linear appearance rate of the compound on the BL side (μmol/s), A is the surface area of the cell monolayer (cm^2), and C 0 is the initial concentration of the drug on the AP side (μmol/L).
# [3] = set-up: method as in Wang et al., 2008; conditions: ref Wang et al., 2008; cited from earlier work
# NADPH oxidase (NOX) [4] = test: NOX activity determination, C6 cells; format: cell-based, rat; conditions: 20 and 50 μM
# Method: as §2
smiles,measurement,setting,value
"COc1cc(C(C)=O)ccc1O [Compound D1, 4-hydroxy-3-methoxyacetophenone, reference compound]",Effect on cell viability of rat BMECs,rat BMECs,significantly inhibit the cell viability
same,Effect on NOX activities vs control,NADPH oxidase (NOX) [1],significantly inhibited
same,"Papp at 90 min, 20 μM",[2],4.95 ± 0.39 ×10⁻⁶ cm/s
same,Amount in the brain tissue relative to that present in the blood,[3],< 8%
same,Effect on NOX activities vs control,NADPH oxidase (NOX) [4],significantly inhibited
